Measured values published in paper PMC6277767, “Broad and Region-Specific Impacts of the Synthetic Cannabinoid CP 55,940 in Adolescent and Adult Female Mouse Brains” (Frontiers in Molecular Neuroscience, 2018).

Test system: CD1 female mouse brain lipidome
Test: Brain-region lipid levels (HPLC/MS/MS lipidomics) 2 h after single i.p. 3 mg/kg CP 55,940 vs vehicle
Type: in vivo
Set-up: N-arachidonoyl phenylalanine level, Mean / N-stearoyl tryptophan level, Mean / N-stearoyl proline level, Mean / N-stearoyl leucine level, Mean / N-stearoyl phenylalanine level, Mean / N-stearoyl serine level, Mean / N-stearoyl methionine level, Mean: unit: moles per gram
Details: cortex
Experimental: The Bloomington Institutional Animal Care and Use Committee of Indiana University reviewed and approved the animal procedures. Female mice from the CD1 strain were utilized to match our study examining THC’s effects on the brain lipidome ([Leishman et al., 2018]). Mice were given a single i.p. injection of either 3 mg/kg CP or 1:1:18 cremophor:ethanol:saline vehicle (please refer to the section “3 mg/kg CP Is Relevant for Synthetic Cannabinoid Abuse and Has Stronger Effects on the Female Mouse Brain Lipidome During Adolescence” for a justification of dose and use of female mice). Three different age groups were given injections: PND 35 and PND 50 adolescents, and adult mice (PND 113). At least eight mice in each age group received CP and at least eight received vehicle. Matching the THC study time course ([Leishman et al., 2018]), mice were sacrificed via rapid decapitation 2 h after injection. Brains were immediately removed and flash-frozen in liquid nitrogen, and then stored at -80°C until dissections were performed. Brains were dissected on an ice-cold dissection plate into the following regions: STR, HIPP, CER, THAL, CTX, HYP, MID, and STEM. These abbreviations for these brain areas will be used exclusively when discussing the results generated by these specific dissections. Each dissected area was immediately placed in liquid nitrogen and then stored at -80°C until used for lipid extraction.
Tissue extracts were performed as previously described ([Bradshaw et al., 2006]; [Stuart et al., 2013]; [Raboune et al., 2014]; [Leishman et al., 2016a],[b], [2017], [2018]). First, samples were shock frozen in liquid nitrogen, weighed, and transferred to a centrifuge tube. The mass of the largest sample was multiplied by 50 to determine how many milliliters of HPLC-grade methanol (Fisher, Fair Lawn, NJ, United States) to add. Then, samples were spiked with 500 pmol deuterium-labeled NAGly (d8NAGly; Cayman Chemical, Ann Arbor, MI, United States). Samples were placed on ice in darkness for 2 h then individually homogenized and centrifuged at 19,000 × g for 20 min at 20°C. Supernatants were diluted with HPLC water (purified in house) to make a solution of 75% water, 25% supernatant. Lipids were partially purified on C18 solid phase extraction columns (Agilent, Palo Alto, CA, United States). A series of four elutions with 1.5 mL of 60%, 75%, 85%, and 100% methanol were collected ([Stuart et al., 2013]; [Leishman et al., 2016a],[b], [2018]).
As previously described ([Bradshaw et al., 2006]; [Tan et al., 2006]; [Smoum et al., 2010]; [Stuart et al., 2013]; [Tortoriello et al., 2013]; [Raboune et al., 2014]; [Leishman et al., 2016a],[b], [2017], [2018]), samples were analyzed using an Applied Biosystems API 3000 triple quadrupole mass spectrometer with electrospray ionization (Foster City, CA, United States). Using an Agilent XDB-C18 reversed phase analytical column and optimized mobile phase gradients, 20 μL from each elution were chromatographed. Two Shimadzu 10ADvp pumps (Columbia, MD, United States) provided the pressure for gradient elution. Mobile phase A: 20% methanol, 80% water (v/v) and 1 mM ammonium acetate (Sigma, St. Louis, MO, United States). Mobile phase B: 100% methanol, 1 mM ammonium acetate. Every method run began with 0% mobile phase B, reached 100% mobile phase B flowing at 0.2 mL/min, and gradually returned to 0% mobile phase B.
This screening library will be referred to as the lipidome when discussing data from this study. HPLC/MS/MS data were analyzed using Analyst software (Applied Biosystems) ([Bradshaw et al., 2006]; [Tan et al., 2006]; [Stuart et al., 2013]; [Tortoriello et al., 2013]; [Raboune et al., 2014]; [Leishman et al., 2016a],[b], [2017], [2018]). Chromatograms (Supplementary Figure 3) were generated by determining the retention time of analytes from the analytical column with a [M-1] or [M+1] parent peak and a fragmentation peak corresponding to the programmed values. […]

[1] = PND 50 female mice, 3mg/kg CP 55,940
[2] = WT adult female mice, 3mg/kg CP 55,940

For `CCCCCCC(C)(C)c1ccc([C@@H]2C[C@H](O)CC[C@H]2CCCO)c(O)c1` [CP 55,940], the “N-palmitoyl leucine level, Mean” value [1] was 1.98E-12, the “N-palmitoyl methionine level, Mean” value [1] was 1.01E-12 and the “N-palmitoyl phenylalanine level, Mean” value [1] was 1.98E-12. For the same compound, the “N-palmitoyl proline level, Mean” value [1] was “BDL”, the “N-palmitoyl serine level, Mean” value [1] was 4.17E-11 and the “N-palmitoyl tryptophan level, Mean” value [1] was “BDL”. The “N-palmitoyl tyrosine level, Mean” value [1] was 6.65E-13, the “N-palmitoyl valine level, Mean” value [1] was 3.13E-13 and the “N-stearoyl GABA level, Mean” value [1] was 1.55E-11. The “N-stearoyl alanine level, Mean” value [1] was 3.67E-12, the “N-stearoyl ethanolamine level, Mean” value [1] was 2.8E-12 and the “N-stearoyl glycine level, Mean” value [1] was 1.45E-12. For the same compound, the “N-stearoyl leucine level, Mean” value [1] was 2.21E-12, the “N-stearoyl methionine level, Mean” value [1] was 1.13E-12 and the “N-stearoyl phenylalanine level, Mean” value [1] was 2.99E-12. The “N-stearoyl proline level, Mean” value [1] was “BDL”, the “N-stearoyl serine level, Mean” value [1] was 3.75E-11 and the “N-stearoyl tryptophan level, Mean” value [1] was “BDL”. For the same compound, the “N-stearoyl tyrosine level, Mean” value [1] was 2.52E-13, the “Oleic acid level, Mean” value [1] was 1.6E-09 and the “PGE2 level, Mean” value [1] was 1.58E-10. For the same compound, the “PhosphoLEA level, Mean” value [1] was 3.22E-12, the “THC level, Mean” value [1] was “BDL” and the “N-arachidonoyl GABA level, Mean” value [2] was 1.28E-11. The “N-arachidonoyl alanine level, Mean” value [2] was 1.09E-12, the “N-arachidonoyl ethanolamine level, Mean” value [2] was 2.77E-11 and the “N-arachidonoyl glycine level, Mean” value [2] was 1.07E-12. The “N-arachidonoyl phenylalanine level, Mean” value [2] was 5.77E-14, the “N-docosahexaenoyl GABA level, Mean” value [2] was 6.57E-12 and the “N-docosahexaenoyl ethanolamine level, Mean” value [2] was 2.54E-11. The “N-docosahexaenoyl glycine level, Mean” value [2] was 8.32E-14, the “N-docosahexaenoyl leucine level, Mean” value [2] was 8.03E-13 and the “N-docosahexaenoyl phenylalanine level, Mean” value [2] was 3E-14. For the same compound, the “N-linoleoyl GABA level, Mean” value [2] was 4.08E-12, the “N-linoleoyl ethanolamine level, Mean” value [2] was 2.93E-11 and the “N-linoleoyl glycine level, Mean” value [2] was 5.03E-14. The “N-linoleoyl leucine level, Mean” value [2] was 9.31E-14, the “N-oleoyl GABA level, Mean” value [2] was 9.86E-12 and the “N-oleoyl alanine level, Mean” value [2] was 2.22E-12. For the same compound, the “N-oleoyl ethanolamine level, Mean” value [2] was 1.38E-10, the “N-oleoyl glycine level, Mean” value [2] was 2.9E-13 and the “N-oleoyl leucine level, Mean” value [2] was 7.57E-13. The “N-oleoyl phenylalanine level, Mean” value [2] was 3.2E-13, the “N-palmitoyl GABA level, Mean” value [2] was 1.4E-11 and the “N-palmitoyl alanine level, Mean” value [2] was 2.07E-12. For the same compound, the “N-palmitoyl ethanolamine level, Mean” value [2] was 3.62E-11, the “N-palmitoyl glycine level, Mean” value [2] was 9.43E-13 and the “N-palmitoyl leucine level, Mean” value [2] was 1.16E-12. For the same compound, the “N-palmitoyl methionine level, Mean” value [2] was 2.58E-12, the “N-palmitoyl phenylalanine level, Mean” value [2] was 2.56E-13 and the “N-stearoyl GABA level, Mean” value [2] was 1.05E-11. The “N-stearoyl alanine level, Mean” value [2] was 3.38E-12, the “N-stearoyl ethanolamine level, Mean” value [2] was 3.18E-11 and the “N-stearoyl glycine level, Mean” value [2] was 1.95E-12. For the same compound, the “N-stearoyl leucine level, Mean” value [2] was 1.32E-12, the “N-stearoyl methionine level, Mean” value [2] was 3.92E-13 and the “N-stearoyl phenylalanine level, Mean” value [2] was 1.71E-13. For the same compound, the “2-palmitoyl glycerol Direction (rel to Veh)” value (PND 35, 3 mg/kg CP 55,940) was “↑”, the “2-palmitoyl glycerol, Magnitude (x Veh level)” value (PND 35, 3 mg/kg CP 55,940) was 1.57 x Veh level and the “6-ketoPGF1α Direction (rel to Veh)” value (PND 35, 3 mg/kg CP 55,940) was “↓”. The “6-ketoPGF1α Magnitude (x Veh level)” value (PND 35, 3 mg/kg CP 55,940) was 0.68 x Veh level, the “N-arachidonoyl GABA Direction (rel to Veh)” value (PND 35, 3 mg/kg CP 55,940) was “↓” and the “N-arachidonoyl GABA Magnitude (x Veh level)” value (PND 35, 3 mg/kg CP 55,940) was 0.83 x Veh level. For the same compound, the “N-arachidonoyl alanine Direction (rel to Veh)” value (PND 35, 3 mg/kg CP 55,940) was “↓”, the “N-arachidonoyl alanine Magnitude (x Veh level)” value (PND 35, 3 mg/kg CP 55,940) was 0.77 x Veh level and the “N-arachidonoyl glycine Direction (rel to Veh)” value (PND 35, 3 mg/kg CP 55,940) was “↓”. For the same compound, the “N-arachidonoyl glycine Magnitude (x Veh level)” value (PND 35, 3 mg/kg CP 55,940) was 0.75 x Veh level, the “N-arachidonoyl methionine Direction (rel to Veh)” value (PND 35, 3 mg/kg CP 55,940) was “↓” and the “N-arachidonoyl methionine, Magnitude (x Veh level)” value (PND 35, 3 mg/kg CP 55,940) was 0.60 x Veh level. For the same compound, the “N-arachidonoyl phenylalanine Direction (rel to Veh)” value (PND 35, 3 mg/kg CP 55,940) was “↓”, the “N-arachidonoyl phenylalanine, Magnitude (x Veh level)” value (PND 35, 3 mg/kg CP 55,940) was 0.76 x Veh level and the “N-arachidonoyl serine Direction (rel to Veh)” value (PND 35, 3 mg/kg CP 55,940) was “↓”. The “N-arachidonoyl serine Magnitude (x Veh level)” value (PND 35, 3 mg/kg CP 55,940) was 0.75 x Veh level, the “N-arachidonoyl taurine Direction (rel to Veh)” value (PND 35, 3 mg/kg CP 55,940) was “↓” and the “N-arachidonoyl taurine Magnitude (x Veh level)” value (PND 35, 3 mg/kg CP 55,940) was 0.83 x Veh level. For the same compound, the “N-arachidonoyl tyrosine Direction (rel to Veh)” value (PND 35, 3 mg/kg CP 55,940) was “↓”, the “N-arachidonoyl tyrosine, Magnitude (x Veh level)” value (PND 35, 3 mg/kg CP 55,940) was 0.73 x Veh level and the “N-docosahexaenoyl GABA Direction (rel to Veh)” value (PND 35, 3 mg/kg CP 55,940) was “↓”. For the same compound, the “N-docosahexaenoyl GABA Magnitude (x Veh level)” value (PND 35, 3 mg/kg CP 55,940) was 0.88 x Veh level, the “N-docosahexaenoyl glycine Direction (rel to Veh)” value (PND 35, 3 mg/kg CP 55,940) was “↓” and the “N-docosahexaenoyl glycine Magnitude (x Veh level)” value (PND 35, 3 mg/kg CP 55,940) was 0.78 x Veh level. For the same compound, the “N-docosahexaenoyl leucine Direction (rel to Veh)” value (PND 35, 3 mg/kg CP 55,940) was “↑”, the “N-docosahexaenoyl leucine Magnitude (x Veh level)” value (PND 35, 3 mg/kg CP 55,940) was 1.52 x Veh level and the “N-docosahexaenoyl serine Direction (rel to Veh)” value (PND 35, 3 mg/kg CP 55,940) was “↓”. The “N-docosahexaenoyl serine Magnitude (x Veh level)” value (PND 35, 3 mg/kg CP 55,940) was 0.62 x Veh level, the “N-docosahexaenoyl valine Direction (rel to Veh)” value (PND 35, 3 mg/kg CP 55,940) was “↑” and the “N-docosahexaenoyl valine Magnitude (x Veh level)” value (PND 35, 3 mg/kg CP 55,940) was 1.37 x Veh level. For the same compound, the “N-linoleoyl GABA Direction (rel to Veh)” value (PND 35, 3 mg/kg CP 55,940) was “↓”, the “N-linoleoyl GABA Magnitude (x Veh level)” value (PND 35, 3 mg/kg CP 55,940) was 0.88 x Veh level and the “N-linoleoyl glycine Direction (rel to Veh)” value (PND 35, 3 mg/kg CP 55,940) was “↓”. For the same compound, the “N-linoleoyl glycine Magnitude (x Veh level)” value (PND 35, 3 mg/kg CP 55,940) was 0.69 x Veh level, the “N-oleoyl GABA Direction (rel to Veh)” value (PND 35, 3 mg/kg CP 55,940) was “↓” and the “N-oleoyl GABA Magnitude (x Veh level)” value (PND 35, 3 mg/kg CP 55,940) was 0.81 x Veh level. For the same compound, the “N-oleoyl alanine Direction (rel to Veh)” value (PND 35, 3 mg/kg CP 55,940) was “↓”, the “N-oleoyl alanine Magnitude (x Veh level)” value (PND 35, 3 mg/kg CP 55,940) was 0.75 x Veh level and the “N-oleoyl glycine Direction (rel to Veh)” value (PND 35, 3 mg/kg CP 55,940) was “↓”. For the same compound, the “N-oleoyl glycine Magnitude (x Veh level)” value (PND 35, 3 mg/kg CP 55,940) was 0.89 x Veh level, the “N-oleoyl leucine Direction (rel to Veh)” value (PND 35, 3 mg/kg CP 55,940) was “↑” and the “N-oleoyl leucine Magnitude (x Veh level)” value (PND 35, 3 mg/kg CP 55,940) was 1.22 x Veh level. For the same compound, the “N-oleoyl methionine Direction (rel to Veh)” value (PND 35, 3 mg/kg CP 55,940) was “↓”, the “N-oleoyl methionine, Magnitude (x Veh level)” value (PND 35, 3 mg/kg CP 55,940) was 0.67 x Veh level and the “N-oleoyl valine Direction (rel to Veh)” value (PND 35, 3 mg/kg CP 55,940) was “↑”.
